Results on 7 compounds are retold here after US8445440B2, “Dimeric IAP inhibitors” (Novartis AG, priority 2010, dated 2013).

Structures are written as SMILES. pEC50, pIC50: −log10 of the molar value.

The target of one test is XIAP-BIR3 (Homo sapiens, UniProt P98170). In words: Biacore SPR solution competition binding assay vs smac7 mer peptide, XIAP-BIR3. Particulars: citrate salt form tested; 100 nM XIAP-BIR3; 25° C.; read-out: XIAP-BIR3 Binding Biacore (Competitive) EC50. An excerpt: (§1) The compounds described herein above were profiled using a cellular assay (using SKOV3 or Panc3.27 tumor cells) and a binding assay to determine the competition between the compounds of the present invention and smac7 mer peptide for XIAP-BIR3 and cIAP1-BIR3 binding groove occupancy.
Chain of XIAP-BIR3 (P98170 241-356 limits assumed): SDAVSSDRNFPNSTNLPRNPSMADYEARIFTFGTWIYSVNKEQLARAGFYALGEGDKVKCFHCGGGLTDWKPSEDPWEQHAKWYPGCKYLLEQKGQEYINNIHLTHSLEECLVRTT
(§2) The present method includes utility of a Surface plasmon resonance (SPR)-based biosensor (Biacore™ GE Healthcare, Uppsala, Sweden) to examine competition between the compounds of the present invention and smac7 mer peptide for XIAP-BIR3 and cIAP1-BIR3 binding groove occupancy.
(§3) Biacore™ utilizes the phenomenon of surface plasmon resonance (SPR) to detect and measure binding interactions. In a typical Biacore experiment, one of the interacting molecules is immobilized on a flexible dextran matrix while the interacting partner is flowed over the derivatized surface. A binding interaction results in an increase in mass on the sensor surface and a corresponding direct change in the refractive index of the medium in the vicinity of the sensor surface. Changes in refractive index or signal are recorded in resonance units (R.U.) Signal changes due to association and dissociation of complexes are monitored in a non-invasive manner, continuously and in real-time, the results of which are reported in the form of a sensorgram.
(§4) Biacore™ T100 (GE Healthcare, Uppsala, Sweden) was used to conduct all experiments reported herein. Sensor surface preparation and interaction analyses were performed at 25° C. Buffer and Biacore reagents were purchased from GE Healthcare. Running buffer containing 10 mM Hepes, pH7.4, 150 mM sodium chloride, 1.25 mM Dithiothreitol, 2% Dimethyl sulfoxide and 0.05% polysorbate 20 was utilized throughout all experiments.
(§5) Biotinylated smac7 mer peptide was diluted to 10 nM in running buffer and captured onto a sensor surface pre-derivatized with streptavidin (sensor chip SA) towards peptide surface densities in the range 40-100 R.U. Peptide captured surfaces were blocked with 500 μM PEO2-Biotin (Thermo Scientific).
(§6) Interaction analyses were performed by first equilibrating each compound within a six point seven fold compound dilution series in the range 1 μM to 0.06 nM with either 100 nM XIAP-BIR3 or 6 nM cIAP1-BIR3 for at least one hour during instrument start-up procedures. Protein compound mixtures were then injected over reference and smac7 mer peptide surfaces in series for 60 seconds at a flow-rate of 64 μL/minutes. Surface regeneration was performed at the end of each analysis cycle by a 30 second injection of 10 mM Glycine, pH 2.5, 1M Sodium Chloride, 0.05% polysorbate 20. Additionally, control compound samples and control XIAP-BIR3 or cIAP1-BIR3 samples were prepared and run at regular intervals to monitor surface and assay performance.
(§7) Data analyses were carried out using Biacore™ T100 evaluation software v2.0 to validate assay quality. Binding level report points were plotted versus logarithmic compound concentration values and analyzed in Graphpad prism 5 via non-linear regression using a one-site competition model. EC50 values were generated and used as a measure of inhibitor potency.

The target of a further test is cIAP1-BIR3 (Homo sapiens, UniProt Q13490). The test is described as follows: Biacore SPR solution competition binding assay vs smac7 mer peptide, cIAP1-BIR3. The conditions noted are these: citrate salt form tested; 6 nM cIAP1-BIR3; 25° C.; read-out: CIAP-BIR3 Binding Biacore (Competitive) EC50.
Chain of cIAP1-BIR3 (Q13490 260-352 limits assumed): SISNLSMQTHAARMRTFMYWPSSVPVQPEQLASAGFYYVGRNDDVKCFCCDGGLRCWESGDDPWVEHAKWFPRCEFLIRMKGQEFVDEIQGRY
Text: as §1, §2, §3, §4, §5, §6, §7

Another test concerns SKOV3 tumor cells. The test is described as follows: Cellular assay, SKOV3 tumor cell proliferation (Cell Titer Glo). It counts as cell-based. Particulars: Homo sapiens, SK-OV-3, citrate salt form tested, 72 hour growth. Here is the method: as §1
(§8) On day one adherent SKOV3 and Panc3.27 cells are plated into two 96-well, clear, flat bottom plates. All wells in row A contain 90 uL of media. All wells in rows B-G contain a total volume of 90 uL per well and 2000 cells per well for SKOV3 and 4000 cells per well for Panc3.27 cell lines. Plates are then incubated overnight for 18 hours at 37° C., 5% CO2.
(§9) On day two cells are treated with the compounds of formula M-L-M′. Treatments are done in triplicate. The compounds are first serially diluted in DMSO and then added to media giving a final concentration of 0.2% DMSO when added to cells. Cells are treated with 10 uL of serially diluted compounds of formula M-L-M′ at a final concentration of 1000 nM, 200 nM, 40 nM, 8 nM, 1.6 nM, 0.32 nM, 0.06 nM, 0.013 nM, 0.0026 nM, and one untreated well. Plate two is used as a time zero plate.
(§10) To measure cell viability 50 uL of Cell Titer Glo (CTG) solution is added to row A, media only and B, cells and media. CTG is purchased from Promega Corporation catalog number G7573. The solution is prepared according to manufacturer's instructions. CTG measures the amount of ATP released from viable cells that is proportional to the number of cells in each well. After incubating for ten minutes with CTG plates are measured on a luminescent reader at 700 nm wavelength. Read time is approximately one second per well for a 96-well plate.
(§11) On day five 50 uL of CTG is added to plate one, rows A-G, incubated for 10 minutes at room temperature and read on a luminescent reader. Raw data is adjusted to account for the time zero plate as well as background noise. Triplicate values are averaged and percent control growth is calculated. Percent control growth is calculated using the following logical test: If well read data point (a) is greater than time zero data point (t=0), then 100*[(a)−(t=0)]/[(72 hour total growth)−(t=0)], OR 100*[(a)−(t=0)]/[(t=0)]. Data is represented by line graph with the concentration of compound on the x axis and percent control growth on the y axis.

Another test relates to Panc3.27 tumor cells. The test is described as follows: Cellular assay, Panc3.27 tumor cell proliferation (Cell Titer Glo). It counts as cell-based. The conditions noted are these: citrate salt form tested, Panc3.27 cells, 72 hour growth, read-out: PANC proliferation IC50. How it is done: as §1, §8, §9, §10, §11
Test [1] deals with SKOV3 or Panc3.27 tumor cells. In words: In vitro combination study, fixed concentration of IAP inhibitor with varied combination agent. It counts as cell-based. Particulars: each agent alone. Here is the method:
as §8
On day two cells are treated with the compounds of formula M-L-M′. Treatments are done in triplicate. The compounds are first serially diluted in DMSO and then added to media giving a final concentration of 0.2% DMSO when added to cells. […]
To measure cell viability 50 uL of Cell Titer Glo (CTG) solution is added to row A, media only and B, cells and media. […] After incubating for ten minutes with CTG plates are measured on a luminescent reader at 700 nm wavelength. Read time is approximately one second per well for a 96-well plate.
On day five 50 uL of CTG is added to plate one, rows A-G, incubated for 10 minutes at room temperature and read on a luminescent reader. […] Triplicate values are averaged and percent control growth is calculated. Percent control growth is calculated using the following logical test: If well read data point (a) is greater than time zero data point (t=0), then 100*[(a)−(t=0)]/[(72 hour total growth)−(t=0)], OR 100*[(a)−(t=0)]/[(t=0)]. […]

With `CN[C@@H](C)C(=O)N[C@@H](CCCCNC(=O)c1ccc(-c2ccc(C(=O)NCCCC[C@H](NC(=O)[C@H](C)NC)C(=O)N3CCC[C@H]3c3cncc(C(=O)c4ccc(F)cc4)c3)cc2)cc1)C(=O)N1CCC[C@H]1c1cncc(C(=O)c2ccc(F)cc2)c1` [Example 1J, Biphenyl-4,4′-dicarboxylic acid bis-{[(S)-6-{(S)-2-[5-(4-fluorobenzoyl)-pyridin-3-yl]-pyrrolidin-1-yl}-5-((S)-2-methylamino-propionylamino)-6-oxo-hexyl]-amide}], the pEC50 was 6.79 to 7.22 on XIAP-BIR3 and 8.51 to 9.24 at cIAP1-BIR3. For the same compound, the pIC50 with SKOV3 tumor cells is 8.23 to 10.59; in the test on Panc3.27 tumor cells, 8.18 to 11.59. For the same compound, the “single agent activity in the in vitro combination study” value in test [1] is “neither Example 1J nor paclitaxel alone showed significant activity”.
Take `CN[C@@H](C)C(=O)N[C@@H](Cc1ccc(NC(=O)CCCCCCCCC(=O)Nc2ccc(C[C@H](NC(=O)[C@H](C)NC)C(=O)N3CCC[C@H]3c3cncc(C(=O)c4ccc(F)cc4)c3)cc2)cc1)C(=O)N1CCC[C@H]1c1cncc(C(=O)c2ccc(F)cc2)c1` [Example 2B, Decanedioic acid bis-({4-[(S)-3-{(S)-2-[5-(4-fluoro-benzoyl)-pyridinyl-3-yl]-pyrrolidin-1-yl}-2-((S)-2-methylamino-propionylamino)-3-oxo-propyl]-phenyl}-amide)]: the pEC50 was 6.71 to 6.88 at XIAP-BIR3 and 9.39 to 9.43 on cIAP1-BIR3. For the same compound, the values for the pIC50 with SKOV3 tumor cells and with Panc3.27 tumor cells were 7.81 to 8.13 and 7.59 to 7.93, respectively.
With `CN[C@@H](C)C(=O)N[C@@H](Cc1ccc(NC(=O)CCCCC(=O)Nc2ccc(C[C@H](NC(=O)[C@H](C)NC)C(=O)N3CCC[C@H]3c3cncc(C(=O)c4ccc(F)cc4)c3)cc2)cc1)C(=O)N1CCC[C@H]1c1cncc(C(=O)c2ccc(F)cc2)c1` [Example 2C, Hexanedioic acid bis-({4-[(S)-3-{(S)-2-[5-(4-fluoro-benzoyl)-pyridin-3-yl]-pyrrolidin-1-yl}-2-((S)-2-methylamino-propionylamino)-3-oxo-propyl]-phenyl}-amide)], the pEC50 at XIAP-BIR3 was 6.86 to 6.90; at cIAP1-BIR3, 9.22 to 9.24. Moreover, the pIC50 is 6.50 to 7.22 in the test on SKOV3 tumor cells and 6.41 to 6.84 in the test on Panc3.27 tumor cells.
As for `CN[C@@H](C)C(=O)N[C@@H](Cc1ccc(NC(=O)c2cccc(C(=O)Nc3ccc(C[C@H](NC(=O)[C@H](C)NC)C(=O)N4CCC[C@H]4c4cncc(C(=O)c5ccc(F)cc5)c4)cc3)c2)cc1)C(=O)N1CCCC1c1cncc(C(=O)c2ccc(F)cc2)c1` (stereo partly drawn) [Example 2D, N,N′-Bis-{4-[(S)-3-{(S)-2-[5-(4-fluoro-benzoyl)-pyridin-3-yl]-pyrrolidin-1-yl}-2-((S)-2-methylamino-propionylamino)-3-oxo-propyl]-pheny}-isophthalamide], the pEC50 at XIAP-BIR3 is 6.62 to 6.64; on cIAP1-BIR3, 9.17 to 9.18. The pIC50 was 6.54 to 6.97 with SKOV3 tumor cells and 6.16 to 6.78 with Panc3.27 tumor cells.
Take `CN[C@@H](C)C(=O)N[C@@H](Cc1ccc(NC(=O)CCCCCCCC(=O)Nc2ccc(C[C@H](NC(=O)[C@H](C)NC)C(=O)N3CCC[C@H]3c3cncc(C(=O)c4ccc(F)cc4)c3)cc2)cc1)C(=O)N1CCC[C@H]1c1cncc(C(=O)c2ccc(F)cc2)c1` [Example 2E, Nonanedioic acid bis-({4-[(S)-3-{(S)-2-[5-(4-fluoro-benzoyl)-pyridin-3-yl]-pyrrolidin-1-yl}-2-((S)-2-methylamino-propionylamino)-3-oxo-propyl]-phenyl}-amide)]: the pEC50 at XIAP-BIR3 is 6.99 to 7.00; at cIAP1-BIR3 it was 9.09 to 9.14. In addition, the pIC50 in the test with SKOV3 tumor cells was 7.63 to 7.77; in the test on Panc3.27 tumor cells, 7.02 to 7.42.
Consider `CN[C@@H](C)C(=O)N[C@@H](Cc1ccc(NC(=O)CCCC(=O)Nc2ccc(C[C@H](NC(=O)[C@H](C)NC)C(=O)N3CCC[C@H]3c3cncc(C(=O)c4ccc(F)cc4)c3)cc2)cc1)C(=O)N1CCC[C@H]1c1cncc(C(=O)c2ccc(F)cc2)c1` [Example 2F, Pentanedioic acid bis-({4-[(S)-3-{(S)-2-[5-(4-fluoro-benzoyl)-pyridin-3-yl]-pyrrolidin-1-yl}-2-((S)-2-methylamino-propionylamino)-3-oxo-propyl]-phenyl}-amide)], for which the pEC50 was 6.90 to 6.91 at XIAP-BIR3 and 9.15 on cIAP1-BIR3. Also, the figures for the pIC50 with SKOV3 tumor cells and in the test with Panc3.27 tumor cells were at most 6.01 and 6.41 to 7.05, respectively.
`CC(=O)O[C@H]1C(=O)[C@@]2(C)[C@H]([C@H](OC(=O)c3ccccc3)[C@]3(O)C[C@H](OC(=O)[C@H](O)[C@@H](NC(=O)c4ccccc4)c4ccccc4)C(C)=C1C3(C)C)[C@]1(OC(C)=O)CO[C@@H]1C[C@@H]2O` [Paclitaxel, paclitaxel, reference compound]: the “single agent activity in the in vitro combination study” value in test [1] is given as “neither Example 1J nor paclitaxel alone showed significant activity”.
